One may read the IC50 as the concentration needed to halve the response being measured.

In experiment [1] the test system is HIV. The experiment can be described thus: HIV (in vitro) MT4 assay. It is filed as cell-based. The conditions noted are these: Human immunodeficiency virus 1.
The test system of experiment [2] is HIV. The experiment in a line: HeLa-CD4 plaque reduction assay (HIV in vitro). The class given is cell-based. Conditions: Human immunodeficiency virus 1. (Plaque reduction counts the foci of infection that form in a cell layer.)

As for `Fc1cccc2c1Sc1ccccc1NC2=S` [8(iv), 4-Fluoro-10,11-dihydrobenzo[b,f][1,4]thiazepin-11-thione], the IC50 was found to be 3.3 µM in the experiment with HIV [1] and 15.4 µM in the experiment with HIV [2].
Consider `O=[N+]([O-])c1ccc2c(c1)C(=S)Nc1ccccc1S2` [Example 6, 2-Nitro-10,11-dihydrodibenzo[b,f][1,4]thiazepin-11-thione], for which the IC50 amounted to 44.4 µM with HIV [1] and 14.4 µM in the experiment on HIV [2].
For `S=C1Nc2ccccc2Sc2ccccc21` [Example 3, 10,11-Dihydrodibenzo[b,f][1,4]thiazepin-11-thione], the IC50 with HIV [1] was determined as 9 µM; in the experiment on HIV [2], 5 µM.
